Reference: EP0309789A1, “4-Oxo-3-quinolinecarboxylic acids useful as antibacterial agents and preparation thereof” (STERLING WINTHROP INC., priority 1987, dated 1989)
Converted amounts (≈) assume the structure as drawn. Where two headings read alike, the source gives them in different places.

Columns and labels:
Escherichia coli = assay: In vitro antimicrobial activity, microplate dilution procedure (MIC); format: cell-based
Protocol: (§1) The in vitro antimicrobial activity of the compounds of the invention was determined by a microplate dilution procedure. […] Resulting suspensions were diluted 1/10 in the appropriate broth or used undiluted for the inoculum. […] The compounds were then serially diluted two-fold in DMSO to give a working stock concentration range plate. The last row of wells was left compound-free receiving only DMSO to serve as a growth control. Five mcl from each well of the working stock plate was transferred to corresponding wells of a separate plate containing 95 mcl/well of the appropriate broth. All dilutions were made with either an automated dilutor or manually. […] Plates were incubated as described above and read for visible growth. The minimal inhibitory concentration (MIC: expressed in mcg/ml) of each compound tested against each test microorganism was determined as the lowest concentration of compound which prevents visible microbial growth.

Micrococcus luteus = assay: as above; format: cell-based
Protocol: as §1

Staphylococcus aureus = assay: as above; format: cell-based; conditions: for MIC: Staphylococcus aureus; for activity relative to compound R / activity relative to compounds P and Q: from Table I
Protocol: as §1

Streptococcus faecalis = assay: as above; format: cell-based; conditions: Enterococcus faecalis
Protocol: as §1

Streptococcus pneumoniae = assay: as above; format: cell-based
Protocol: as §1

Bacteroides fragilis = assay: In vitro antimicrobial activity, microplate dilution procedure (MIC), anaerobic; format: cell-based
Protocol: as §1

Pseudomonas aeruginosa = assay: In vitro antimicrobial activity, microplate dilution procedure (MIC); format: cell-based; conditions: read-out: PA MIC
Protocol: as §1

E. coli = assay: In vivo antibacterial activity in infected mice (protective dose); conditions: Mouse, one-half hour postinfection, deaths recorded for seven days; for E. coli (PD₅₀) sc: subcutaneous
Protocol: (§2) The in vivo antibacterial activity of the compounds of the invention was determined in female mice, 18-20 grams each. Aqueous solutions of the compounds to be tested were prepared by dissolving the free acid form in dilute sodium hydroxide and diluting the solution with distilled water to the desired concentration. Cultures of E. coli were grown in brain heart infusion broth, and the mice were inoculated intraperitoneally with 0.5 ml of the bacterial test inoculum suspended in saline. Cultures of Staph. aureus were thawed from frozen pooled stocks and mixed with 5% mucin. A 0.5 ml preparation was used to infect mice by i.p. inoculation. The mice were medicated subcutaneously (sc) or orally (po) with 0.5 ml of the test compound solution one-half hour postinfection. Deaths were recorded daily for seven days. Fifty percent protective dose values (PD₅₀) were calculated using probit analysis.

Staph. aureus = assay: as above; conditions: for Staph. aureus (PD₅₀) po / Staph. aureus (PD₅₀) sc: Mouse, one-half hour postinfection, deaths recorded for seven days; for Staph. aureus (PD₅₀) sc: subcutaneous; for activity relative to the prior art compounds: Staph. aureus, in vivo mouse, from Table II
Protocol: as §2

[1] = Serum levels in monkeys after oral dosing; format: in vivo; conditions: 25 mg/kg oral dosing; for half-life: monkey
Protocol: In monkeys, compounds A and C gave high and prolonged serum levels after 25 mg/kg oral dosing.

[2] = Strep. pneumoniae, read-out: MIC
[3] = Streptococcus faecalis, read-out: SF MIC

Structure (SMILES)	MIC (Escherichia coli; read-out: EC MIC) [µg/mL]	MIC (Micrococcus luteus; read-out: ML MIC) [µg/mL]	MIC (Pseudomonas aeruginosa) [µg/mL]	activity relative to compound R (Staphylococcus aureus; Staph. aureus)	activity relative to compounds P and Q (Staphylococcus aureus; Staph. aureus)	MIC (Staphylococcus aureus; read-out: SA MIC) [µg/mL]	MIC (Streptococcus faecalis; [3]) [µg/mL]	MIC (Streptococcus pneumoniae; read-out: SP MIC) [µg/mL]	MIC (Bacteroides fragilis; anaerobic, read-out: BF MIC) [µg/mL]	E. coli (PD₅₀) po (E. coli) [mg/kg]	E. coli (PD₅₀) sc (E. coli) [mg/kg]	Staph. aureus (PD₅₀) po (Staph. aureus) [mg/kg]	Staph. aureus (PD₅₀) sc (Staph. aureus) [mg/kg]	activity relative to the prior art compounds (Staph. aureus)	also measured
Cc1cc(-c2c(F)cc3c(=O)c(C(=O)O)cn(C4CC4)c3c2SCc2ccccc2)cc(C)n1 [Example 7, 1-cyclopropyl-7-(2,6-dimethyl-4-pyridinyl)-6-fluoro-1,4-dihydro-4-oxo-8-(benzylthio)-3-quinolinecarboxylic acid]															MIC (Escherichia coli; E. coli, read-out: MIC): 4 µg/mL (≈ 8.43 µM); MIC (Micrococcus luteus; M. luteus, read-out: MIC): 64 µg/mL (≈ 135 µM); MIC (Staphylococcus aureus; Staph. aureus, read-out: MIC): < 0.125 µg/mL; MIC (Streptococcus faecalis; Strep. faecalis, read-out: MIC): 2 µg/mL (≈ 4.21 µM); MIC (Streptococcus pneumoniae; [2]): 2 µg/mL (≈ 4.21 µM); MIC (Bacteroides fragilis; B. fragilis, read-out: MIC): 64 µg/mL (≈ 135 µM)
Cc1cc(-c2cc3c(cc2F)c(=O)c(C(=O)O)cn3C2CC2)cc(C)n1 [Compound A, 1-Cyclopropyl-7-(2,6-dimethyl-4-pyridinyl)-6-fluoro-1,4-dihydro-4-oxo-3-quinolinecarboxylic acid]	0.03 (≈ 0.0851 µM)	0.5 (≈ 1.42 µM)	2 (≈ 5.68 µM)	four times as active	thirty times as active	0.008 (≈ 0.0227 µM)	0.06 (≈ 0.17 µM)	0.03 (≈ 0.0851 µM)	0.5 (≈ 1.42 µM)	3.8	3.1	0.20	0.08	9-30 times	maximum concentration [1]: 13 µg/mL; time of maximum concentration [1]: 7 h; half-life [1]: 13 h
CCn1cc(C(=O)O)c(=O)c2ccc(-c3cc(C)nc(C)c3)cc21 [P, 7-(2,6-Dimethyl-4-pyridinyl)-1-ethyl-1,4-dihydro-4-oxo-3-quinolinecarboxylic acid, reference compound]	0.25 (≈ 0.776 µM)	8 (≈ 24.8 µM)	32 (≈ 99.3 µM)			0.25 (≈ 0.776 µM)	1 (≈ 3.1 µM)	2 (≈ 6.2 µM)	16 (≈ 49.6 µM)	17.9	13.5	3.8	2.37		
Cc1cc(-c2c(F)c(F)c3c(=O)c(C(=O)O)cn(C4CC4)c3c2F)cc(C)n1 [B, 1-Cyclopropyl-7-(2,6-dimethyl-4-pyridinyl)-5,6,8-trifluoro-1,4-dihydro-4-oxo-3-quinolinecarboxylic acid]	0.125 (≈ 0.322 µM)	0.5 (≈ 1.29 µM)	8 (≈ 20.6 µM)	four times as active	thirty times as active	0.008 (≈ 0.0206 µM)	0.06 (≈ 0.155 µM)	0.03 (≈ 0.0773 µM)	0.5 (≈ 1.29 µM)	10.8	8.9	0.14	0.08	9-30 times	
Cc1cc(-c2c(F)cc3c(=O)c(C(=O)O)cn(C4CC4)c3c2F)cc(C)n1 [C, 1-Cyclopropyl-6,8-difluoro-7-(2,6-dimethyl-4-pyridinyl)-1,4-dihydro-4-oxo-3-quinolinecarboxylic acid]	0.06 (≈ 0.162 µM)	0.25 (≈ 0.675 µM)	4 (≈ 10.8 µM)	four times as active	thirty times as active	0.008 (≈ 0.0216 µM)	0.06 (≈ 0.162 µM)	0.016 (≈ 0.0432 µM)	0.125 (≈ 0.338 µM)	5.7	6.1	0.09	0.06	9-30 times	maximum concentration [1]: 34 µg/mL; time of maximum concentration [1]: 5.5 h; half-life [1]: 20 h
CCn1cc(C(=O)O)c(=O)c2cc(F)c(-c3cc(C)nc(C)c3)cc21 [R, 7-(2,6-Dimethyl-4-pyridinyl)-1-ethyl-6-fluoro-1,4-dihydro-4-oxo-3-quinolinecarboxylic acid, reference compound]	0.06 (≈ 0.176 µM)	0.5 (≈ 1.47 µM)	4 (≈ 11.8 µM)			0.03 (≈ 0.0881 µM)	0.25 (≈ 0.735 µM)	0.25 (≈ 0.735 µM)	2 (≈ 5.88 µM)	8.24	5.39	1.38	0.71		
Cc1cc(-c2c(F)c(Sc3ccccc3)c3c(=O)c(C(=O)O)cn(C4CC4)c3c2F)cc(C)n1 [Example 6(c), 1-cyclopropyl-7-(2,6-dimethyl-4-pyridinyl)-6,8-difluoro-5-(phenylthio)-1,4-dihydro-4-oxo-3-quinolinecarboxylic acid]															MIC (Micrococcus luteus; M. luteus, read-out: MIC): 16 µg/mL (≈ 33.4 µM); MIC (Staphylococcus aureus; Staph. aureus, read-out: MIC): 1 µg/mL (≈ 2.09 µM); MIC (Streptococcus faecalis; Strep. faecalis, read-out: MIC): 16 µg/mL (≈ 33.4 µM); MIC (Streptococcus pneumoniae; [2]): 2 µg/mL (≈ 4.18 µM); MIC (Bacteroides fragilis; B. fragilis, read-out: MIC): 16 µg/mL (≈ 33.4 µM)
O=C(O)c1cn(C2CC2)c2cc(N3CCNCC3)c(F)cc2c1=O [Q, 1-Cyclopropyl-6-fluoro-7-(1-piperazinyl)-1,4-dihydro-4-oxo-3-quinolinecarboxylic acid, reference compound]	0.004 (≈ 0.0121 µM)	2 (≈ 6.04 µM)	0.125 (≈ 0.377 µM)			0.25 (≈ 0.754 µM)	0.5 (≈ 1.51 µM)	0.25 (≈ 0.754 µM)	2 (≈ 6.04 µM)						
